Source: paper PMC12084609, “Structural insights into small-molecule agonist recognition and activation of complement receptor C3aR” (The EMBO Journal, 2025)
Positions count from the first letter of the chain named. Values joined by “and” are separate entries in the source; they are usually repeats but may differ in a detail not shown here. Equal entries are not always repeated. Where two headings read alike, the source gives them in different places.

Tests used:
Assay type in all cases: cell-based
C3aR H81^2.63A = biological target: T1, C3aR H81^2.63A (Homo sapiens, UniProt Q16581, H81A); test: GloSensor-based cAMP assay, C3aR mutant H81A
T1 construct: expressed in transfected cells; host or cells: HEK293T
T1 sequence (Q16581 1-482 H81A): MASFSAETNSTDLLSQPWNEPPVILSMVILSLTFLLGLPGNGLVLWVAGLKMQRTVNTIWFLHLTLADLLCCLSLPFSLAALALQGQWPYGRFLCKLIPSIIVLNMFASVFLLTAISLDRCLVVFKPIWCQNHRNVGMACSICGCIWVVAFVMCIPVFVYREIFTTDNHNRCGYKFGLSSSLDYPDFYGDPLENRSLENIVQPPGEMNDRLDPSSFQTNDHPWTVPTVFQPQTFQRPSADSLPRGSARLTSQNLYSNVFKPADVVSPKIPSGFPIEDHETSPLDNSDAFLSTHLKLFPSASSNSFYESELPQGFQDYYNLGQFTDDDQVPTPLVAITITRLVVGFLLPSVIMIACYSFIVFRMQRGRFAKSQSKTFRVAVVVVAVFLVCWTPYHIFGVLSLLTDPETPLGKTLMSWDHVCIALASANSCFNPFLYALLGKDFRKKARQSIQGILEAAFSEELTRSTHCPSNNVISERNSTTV
Protocol: (§1) HEK293T cells were seeded on 6-well plates (NEST) and transfected with pGlosensor™-22F plasmids (Promega) and pcDNA3.1 plasmids encoding C3aR or its mutants an with N-terminal FLAG tag. After 48 h, cells were detached with Accutase solution (Sigma-Aldrich) and washed with PBS, and resuspended in assay buffer (CO2-independent medium with 0.5 mg mL^−1D-luciferin). 100,000–200,000 cells were seeded on 96-well white bottom plates (SPL) and incubated at 37 °C for 45 min followed by 45 min incubation at room temperature. After 90 min of incubation, basal luminescence signals were recorded. In total, 25 μl of test ligand with various concentrations and 1 μM Forskolin (Sigma-Aldrich) were treated to the cells and luminescence signals were measured by Tristar 2 LB 942 multimode reader (Berthold). […] Relative luminescence unit (%) was calculated with the signal of wells treated with vehicle as 0% and the signal of wells treated with 1 μM Forskolin as 100% (DiRaddo et al, [2014]). Nonlinear regression was performed using a three-parameter logistic equation.

C3aR WT = biological target: T2, C3aR WT (Homo sapiens, UniProt Q16581); test: GloSensor-based cAMP assay, WT C3aR (HEK293T); settings: for remaining activity at 0.0001 µM / remaining activity at 10 pM: HEK-293T; for IC50: WT C3aR
T2 construct: expressed in transfected cells; host or cells: HEK293T
T2 sequence (Q16581 1-482): T1 sequence (Q16581 1-482 H81A) with A81H
Protocol: as §1

C3aR R340^5.42A = biological target: T3, C3aR R340^5.42A (Homo sapiens, UniProt Q16581, R340A); test: GloSensor-based cAMP assay, C3aR mutant R340A
T3 construct: expressed in transfected cells; host or cells: HEK293T
T3 sequence (Q16581 1-482 R340A): T1 sequence (Q16581 1-482 H81A) with A81H, R340A
Protocol: as §1

[1] = Dunnett's multiple comparisons test, WT minus mutant

Cc1cc(C(c2ccc(Cl)cc2)c2ccc(Cl)cc2)sc1C(=O)N[C@@H](CCCNC(=N)N)C(=O)O [JR14a, reference compound]
Mean Diff. of pIC50, WT vs. H81A (C3aR H81^2.63A; [1]): 0.544 | remaining activity at 0.001 µM (C3aR H81^2.63A; H81A, Log[JR14a (M)] -9, single replicates, read-out: cAMP response (% Forskolin)): 94.5% | remaining activity at 0.0001 µM (C3aR H81^2.63A; H81A, Log[JR14a (M)] -10, single replicates, read-out: cAMP response (% Forskolin)): 95.5% | remaining activity at 10 pM (C3aR H81^2.63A; H81A, Log[JR14a (M)] -11, single replicates, read-out: cAMP response (% Forskolin)): 93.3% | ΔpIC50 ± SE of Diff. (C3aR H81^2.63A; H81^2.63A relative to WT C3aR): -0.54 ± 0.05 | IC50 (C3aR H81^2.63A; H81^2.63A, individual replicates, read-out: pIC50 (Replicate) (converted)): 6.31 nM | IC50 (C3aR H81^2.63A; IC50, H81^2.63A, dose-response plot): 12.4 nM | IC50 (C3aR H81^2.63A; pIC50 (Replicate), H81^2.63A, individual replicates): 12 nM and 16.2 nM and 18.2 nM | remaining activity at 0.0001 µM (C3aR WT; read-out: cAMP response (% Forskolin), Log[ligand (M)] -10, individual replicates): 93.3% | remaining activity at 10 pM (C3aR WT; read-out: cAMP response (% Forskolin), Log[ligand (M)] -11, individual replicates): 95.3% | remaining activity at 0.0001 µM (C3aR WT; read-out: cAMP response (% Forskolin), WT, Log[JR14a (M)] -10, single replicates): 93.3% | remaining activity at 10 pM (C3aR WT; read-out: cAMP response (% Forskolin), WT, Log[JR14a (M)] -11, single replicates): 95.3% | IC50 (C3aR WT; decrease in cAMP levels, read-out: IC50): 4 nM | IC50 (C3aR WT; individual replicates, read-out: pIC50 (Replicate) (converted)): 6.31 nM and 3.98 nM and 5.01 nM | mode of action at C3aR (C3aR WT; from BRET and cAMP accumulation assays): agonist | IC50 (C3aR WT; pIC50 (Replicate), individual replicates): 2.63 nM and 3.09 nM and 7.08 nM (2×) and 5.75 nM (2×) and 11.5 nM and 8.13 nM and 2.45 nM (2×) and 1.78 nM | IC50 (C3aR WT; pIC50 Value, Figure EV1B numerical data, curve fit): 3.89 nM | IC50 (C3aR WT; pIC50 ± SEM (Mean), 1 μM Forskolin, mean of independent experiments): 4.57 nM | Span Value (C3aR WT; span of cAMP response (% Forskolin) curve, Figure EV1B numerical data): 84.43 | Mean Diff. of pIC50, WT vs. R340A (C3aR R340^5.42A; [1]): 2.282 | IC50 (C3aR R340^5.42A; IC50, R340^5.42A, dose-response plot): 478 nM | remaining activity at 1 µM (C3aR R340^5.42A; R340A, Log[JR14a (M)] -6, single replicates, read-out: cAMP response (% Forskolin)): 78.9% | remaining activity at 0.1 µM (C3aR R340^5.42A; R340A, Log[JR14a (M)] -7, single replicates, read-out: cAMP response (% Forskolin)): 99.9% | remaining activity at 0.0001 µM (C3aR R340^5.42A; R340A, Log[JR14a (M)] -10, single replicates, read-out: cAMP response (% Forskolin)): 105% | remaining activity at 10 pM (C3aR R340^5.42A; R340A, Log[JR14a (M)] -11, single replicates, read-out: cAMP response (% Forskolin)): 104% | ΔpIC50 ± SE of Diff. (C3aR R340^5.42A; R340^5.42A relative to WT C3aR): -2.28 ± 0.14 | IC50 (C3aR R340^5.42A; pIC50 ± SEM (Mean), R340^5.42A, mean of independent experiments): 537 nM
